Laboratory results taken from PubChem BioAssay AID1261 (University of Pittsburgh Molecular Library Screening Center, 2008).
Records with an inconclusive call do not appear. Active and inactive are the calls of the source. No rule for the calls is given here.

Target: Tyrosine-protein phosphatase YopH [Yersinia enterocolitica]
Experiment: potency against Yersinia YopH phosphatase – biochemical, 10-point dose range, dose response (AID 1261)
Details: YopH phosphatase enzymatic assay, IC50, 3 runs; for inhibition: at 50 µM, stronger effect = higher value

Row | SMILES | inhibition [%] | IC50
1 | CN(C1=C(NC(=O)c2ccccc2)C(=O)c2ccccc2C1=O)C1CCS(=O)(=O)C1 (stereo not given) | 27 | –
2 | COCCCNC(=O)C1CCCN(C(=O)Nc2ccc(OC)cc2)C1 (stereo not given) | -19.6 | –
3 | Cc1ccccc1/[N+]([O-])=C/c1ccncc1 | 15.6 | –
4 | O=C1C(Nc2cccc(O)c2)=C(N2CCCCC2)C(=O)c2ccccc21 | 35.8 | –
5 | Cc1ccc(N2C(=O)[C@@H]3[C@H](C2=O)C2c4ccccc4C=CN2[C@@H]3C(=O)c2ccco2)c(C)c1 (stereo not given in full) | 20.7 | –
6 | Cc1ccc(NC2=C(N3CCCCC3)C(=O)c3ccccc3C2=O)cc1 | 35.4 | –
7 | Cc1c(Br)cc(C(=O)OC2CCN(C)CC2)c(C)c1C | 0.211 | –
8 | CCOc1cc(CNc2ccc(N3CCCC3)cc2)cc(Cl)c1OC | -6.54 | –
9 | O=C(/C(=C(\[O-])c1ccccc1)[n+]1ccc2ccccc2c1)c1ccccc1 | -13.2 | –
10 | O=C(NCc1ccccc1)C1CCCN1S(=O)(=O)c1cccc2cccnc12 (stereo not given) | -2.68 | –
11 | O=S(=O)(c1ccc2ccccc2c1)N1CCC(c2nc(-c3ccncc3)no2)CC1 | -14.8 | –
12 | CCC(=O)Nc1nonc1-c1nc2ccccc2n1CCC(C)C | -8.12 | –
13 | COc1ccccc1NC(=O)N1CCC(C(=O)c2ccc(F)cc2)CC1 | -5.37 | –
14 | [O-]/[N+](=C\c1ccc(F)cc1)c1ccccc1 | 2.44 | –
15 | COc1ccc(N2C(=O)[C@@H]3[C@H](C2=O)[C@H]2c4ccccc4C=CN2[C@@H]3C(C)=O)cc1 | -6.89 | –
16 | CCOC(=O)COc1cc(=O)n(CC)c2ccccc12 | -3.72 | –
17 | COc1ccc(-n2nc3ccccc3n2)cc1 | -5.75 | –
18 | Clc1ccc(C2=CSC3=Nc4cccc5cccc(c45)N23)cc1 | 13.3 | –
19 | O=C(/C=C/c1ccc(O)cc1)c1ccc(NC2=C(N3CCCCC3)C(=O)c3ccccc3C2=O)cc1 | 18.9 | –

Row | SMILES | inhibition [%] | IC50
20 | O=C(O[C@@H]1OC2COC(=O)c3cc(O)c(O)c(O)c3-c3c(cc(O)c(O)c3O)C(=O)O[C@@H]([C@H]1O)[C@@H]2O)c1cc(O)c(O)c(O)c1 | -0.367 | –
21 | CCN1CCN(CCCOc2ccc(-c3ccccc3)cc2)CC1 | -0.391 | –
22 | CSc1nsc(/C=C/Nc2ccc(Cl)cc2)c1C#N | -6.81 | > 50 µM (inactive)
23 | CCOc1ccc(C(=S)N2CCOCC2)cc1OC | -1.37 | –
24 | O=C1CCC(=O)N1CC(=O)N1c2ccccc2Sc2ccccc21 | -12.5 | –
25 | O=C(c1ccc(F)cc1)[C@@H]1[C@@H](C(=O)c2ccccc2)[C@@]2(C(=O)Nc3ccccc32)[C@H]2c3ccccc3C=CN12 | 13.8 | –
26 | CC1=CC(=C(C#N)c2nc3ccccc3s2)C=C(C)N1c1ccc(F)cc1 | 8.34 | –
27 | CCN1CCC2(CC1)N=C(c1ccc(F)cc1)C(=S)N2C(=O)c1ccc(C)cc1 | 28.6 | –
28 | O=C(c1ccco1)N1CCN(CC(=O)N2CCCc3c2c(=O)oc2ccc(O)cc32)CC1 | -5.68 | –
29 | Cc1onc(-c2ccccc2)c1C(=O)NCc1ccccn1 | -11.6 | –
30 | CC(C)N(C(=O)COc1ccc(Br)cc1Cl)C(C)C | -12.6 | –
31 | CCn1c(-c2cc(OC)c(OC)c(OC)c2)n[nH]c1=S | -24 | –
32 | CN1C(=O)C(Cc2cccc3ccccc23)C(=O)N(C)C1=O | 20.5 | –
33 | C#CCn1cc(C=C2C(=O)c3ccccc3C2=O)c2ccccc21 | 11.1 | –
34 | CC(=O)Nc1ccc(-c2nnc(SCC(=O)n3c4c(c5ccccc53)CCCC4)n2C)cc1 | -7.8 | –
35 | CCCCCCCC1=CC2=CC(=O)C(C)(OC(C)=O)C(=O)C2=CN1CCc1ccccc1 (stereo not given) | -7.04 | –
36 | CCOC(=O)c1oc2ccc(Br)cc2c1CSc1nnc(C)s1 | -12.1 | –
37 | COCCCNC(=O)CCCC(=O)NCCCOC | -17.3 | –
38 | COc1cc(C2C(C(=O)OC(C)C)=C(C)Nc3[nH]c(=O)[nH]c(=O)c32)ccc1O (stereo not given) | 4.55 | > 50 µM (inactive)
